As a reminder, the pKa is the negative logarithm of the acid dissociation constant. Read a low pKa as a stronger acid or weaker base. For orientation: LD50 means the dose at which mortality reaches 50%. The low end stands for greater toxicity, the high end for lower toxicity.

The results in this text go back to patent US5210290A, “Fluorobenzenesulfonamides” (Schering Aktiengesellschaft, priority 1990, dated 1993).

Some results are limits rather than exact numbers.

Data set [1] in a line: pKa (37° C.). The class given is physicochemical.
The nature of data set [2]: pH dependency of the 19F NMR chemical shift (ppm/pH). It counts as physicochemical. Particulars: change of 19F chemical shift per pH unit. The text has this:
Determination of the pH value with the aid of NMR spectroscopy is based on the measurement of the signals from a chemical compound which is in a pH-dependent, reversible equilibrium. If this equilibrium is slow with respect to the NMR time scale, then the signals of all components can be obtained, and the signal intensities correspond to the concentrations of the equilibrium components. In contrast thereto, with a fast equilibrium, only one signal can be measured, and the chemical shift is given by the chemical displacement of the equilibrium components and their concentration.
In a two-component equilibrium, with knowledge of the pKa value and the chemical shift of the components, it is then possible to calculate the pH value with the aid of the Henderson-Hasselbalch equation.
The frequency (chemical shift) of a fluorine line is determined by the position of the F atom in the molecule. This also holds true, in principle, for all other atomic nuclei, but the chemical shift is especially strongly pronounced in case of the fluorine atom. In order to observe and/or quantify a shift of the fluorine signal, a related (reference) line is needed. This frequency line can be the ^1 H signal, an external F standard or, respectively, an unchanging F line which is likewise within the area to be measured. […]

Data set [3] in a line: LD50, mouse. As to conditions: in vivo.

As for `O=C(O)CCNC(=O)CCS(=O)(=O)Nc1ccc(F)cc1C(F)(F)F` [Example 48, 3-[3-[N-(4-Fluoro-2-trifluoromethylphenyl)sulfamoyl]propionylamino]propionic Acid], in data set [1], the pKa stood at 6.91. For the same compound, in data set [2], the ppm/pH was found to be 5.21 ppm/pH. The same compound showed an LD50 in data set [3] of 4000 µmol/kg.

`O=C(O)CN(CC(=O)O)C(=O)CS(=O)(=O)Nc1ccc(F)cc1C(F)(F)F` [Example 10, 2-[2-[N-(4-Fluoro-2-trifluoromethylphenyl)sulfamoyl]acetylimino]diacetic Acid] registered a pKa in data set [1] of 6.68. The ppm/pH in data set [2] was determined as 4.94 ppm/pH. Also, in data set [3], the LD50 was at most 7500 µmol/kg.
